Results published in patent EP3461480A1, “COMBINATION OF A DNA DAMAGE RESPONSE CELL CYCLE CHECKPOINT INHIBITORS AND BELINOSTAT FOR TREATING CANCER” (ONXEO, priority 2017, dated 2019).

Columns and labels:
Type in all cases: cell-based
[1] = system: triple negative breast cancer (TBNC) cell line MDA-MB-231; assay: XTT cell survival assay and CalcuSyn combination index, MDA-MB-231; conditions: Homo sapiens, monotherapy, XTT assay, dose at which 50% of the cells are viable
Protocol: (§1) Cell cultures were performed with the triple negative breast cancer (TBNC) cell line MDA-MB-231, the histiocytic lymphoma cell line U937 and the non-tumor mammary cell line MCF-10A. Cells were grown according to the supplier's instructions. Cell lines were maintained at 37°C in a humidified atmosphere at 5% CO2, except the MDA-MB-231 cell line which was maintained at 0% CO2.
(§2) In a first step, the characterization of the effect of drugs monotherapy on cell survival (tumour and non-tumour cells) was performed. MDA-MB-231 (5.10^3 cells/well), MCF-10A (5.10^3 cells/well) and U937 (2.10^4 cells/well) were seeded in 96 well-plates and incubated 24 hours at +37°C before addition of the drug at increasing concentrations for 4 to 7 days. Following drug exposure, cell survival was measured using the XTT assay (Sigma Aldrich). Briefly, the XTT solution was added directly to each well containing cell culture and the cells incubated for 4 to 24 hours at 37°C before reading the absorbance at 490 nm and 690 nm using a microplate reader (BMG Fluostar, Galaxy). Cell survival is calculated as the ratio of living treated cells to living mock-treated cells. The IC50 (which represents the dose at which 50% of the cells are viable) is calculated by a non-linear regression model using GraphPad Prism software (version 5.04) by plotting the percentage viability against the Log of the drug concentration on each cell line.
(§3) In a second step, analysis and quantification of the drug combination efficacy were performed. Cells were seeded in 96-well plates at the appropriate densities and treated with belinostat (PXD-101 - Spectrum) and/or ATR (ATRi - AZD6738, Selleckchem; VE-821, Selleckchem) simultaneously during 4 to 7days. Belinostat + ATRi combinations was performed at a constant ratio (from IC50/8 to IC50*8) as previously described (Chou TC, Talalay P. Adv Enzyme Regul. 1984;22:27-55 (Quantitative analysis of dose-effect relationships: the combined effects of multiple drugs or enzyme inhibitors). Cell survival was measured using the XTT assay (see above).
Combination efficacy is evaluated by "the combination index (CI)" which is determined using the CalcuSyn software tool based on the Chou Talalay method. A CI could be interpreted as follows: CI<1, =1, and >1 indicate synergism; additive effect and antagonism, respectively (CalculSyn manual, Biosoft, 2006). Note that we define synergism as a more than expected additive effect, and antagonism as a less than expected additive effect. […]
(§4) In a second step, analysis and quantification of the drug combination efficacy were performed. […] Cell survival is measured using the XTT assay (see above).
(§5) Combination efficacy is evaluated by "the combination index (CI)" which was determined using the CalcuSyn software tool based on the Chou Talalay method. […]

[2] = system: histiocytic lymphoma cell line U937; assay: XTT cell survival assay and CalcuSyn combination index, U937; conditions: Homo sapiens, U-937, monotherapy, XTT assay, dose at which 50% of the cells are viable
Protocol: as §1
as §2, with “The IC50 (which represents the dose at which 50% of the cells are viable) is calculated by a non-linear regression model using GraphPad Prism software (version 5.04) by plotting the percentage viability against the Log of the drug concentration on each cell line.” left out
as §3, with “Cells were seeded in 96-well plates at the appropriate densities and treated with belinostat (PXD-101 - Spectrum) and/or ATR (ATRi - AZD6738, Selleckchem; VE-821, Selleckchem) simultaneously during 4 to 7days.” left out
Combination efficacy is evaluated by "the combination index (CI)" which is determined using the CalcuSyn software tool based on the Chou Talalay method. […]
as §4, §5

[3] = system: non-tumor mammary cell line MCF-10A; assay: XTT cell survival assay, non-tumor cells MCF-10A; conditions: same drug doses as MDA-MB-231, 7 days; for sensitivity of non-tumor cells: XTT survival
Protocol: Following drug exposure, cell survival was measured using the XTT assay (Sigma Aldrich). […] Following drug exposure, cell survival was measured using the XTT assay (Sigma Aldrich).

Compound: C[C@@H]1COCCN1c1cc(C2([S@](C)(=N)=O)CC2)nc(-c2cc[nH]c3nccc2-3)n1 [AZD6738, 4-[4-[1-[[S(R)]-S-methylsulfonimidoyl]cyclopropyl]-6-[(3R)-3-methyl-4-morpholinyl]-2-pyrimidinyl]-1H-pyrrolo[2,3-b]pyridine]
- IC50 [1]: 2500 nM
- IC50 [2]: 500 nM
- sensitivity of non-tumor cells on adding belinostat ([3]; inhibitor plus belinostat): didn't increase
- sensitivity of non-tumor cells [3]: showed a sensitivity

Compound: O=C(/C=C/c1cccc(S(=O)(=O)Nc2ccccc2)c1)NO [Belinostat, (2E)-N-hydroxy-3-[3-(phenylsulfamoyl)phenyl]prop-2-enamide]
- IC50 [1]: 250 nM
- IC50 [2]: 250 nM
- sensitivity of non-tumor cells [3]: insensitive

Compound: Cc1cnc(NC(=O)Nc2cc(Br)c(C)cc2OC[C@@H]2CNCCO2)cn1 [LY2603618, 1-[5-bromo-4-methyl-2-[[(2S)-morpholin-2-yl]methoxy]phenyl]-3-(5-methylpyrazin-2-yl)urea]
- IC50 [1]: 3200 nM
- IC50 [2]: 1100 nM
- sensitivity of non-tumor cells [3]: showed a sensitivity

Compound: CS(=O)(=O)c1ccc(-c2cnc(N)c(C(=O)Nc3ccccc3)n2)cc1 [VE-821, 3-amino-6-(4-methylsulfonylphenyl)-N-phenylpyrazine-2-carboxamide]
- IC50 [1]: 18000 nM
